In one experiment the target is T1, CNB3 of PbCBP-O (PbCNB3) (Plasmodium berghei, UniProt A0A509AL17).
T1 construct: gene PBANKA_1025300; N-terminal 6xHis, pET28a, E. coli Rosetta DE3, soluble lysate
Briefly: cGMP-agarose pull-down, anti-His western blot. It counts as binding. To be noted: ligand immobilised through position […] as 8-AET-cGMP-Agarose (BioLog); E. coli lysate, Hepes pH […]°C, […] h. (Immunoblotting shows a protein as a band on a membrane.)

Experiment [1] has as its target T2, CBP-O(ΔN-term), GFP-tagged (Plasmodium berghei, UniProt A0A509AL17).
T2 construct: gene PBANKA_1025300; endogenous locus edited: residues 1-1694 deleted, CNB1-4/X kept, GFP tag; P. berghei schizont lysate
Briefly: cGMP-agarose pull-down from schizont lysate, anti-GFP western blot. The experiment is classed as biochemical. To be noted: ligand immobilised as 8-AET-cGMP-Agarose; Hepes pH […]°C, […] h.

Take `Nc1nc2c(ncn2[C@@H]2O[C@@H]3COP(=O)(O)O[C@H]3[C@H]2O)c(=O)[nH]1` [cGMP]: the “cGMP-agarose pull-down, anti-His western blot” value at CNB3 of PbCBP-O (PbCNB3) was “CNB3 showed affinity for both cAMP and cGMP (Fig 6C)”. Moreover, in experiment [1], the “cGMP-agarose pull-down from schizont lysate, anti-GFP western blot” value is “the N-term mutant retained cyclic nucleotide binding activity (Fig 6D)”.

The values above are taken from paper PMC12422582, “A divergent cyclic nucleotide binding protein promotes Plasmodium ookinete infection of the mosquito” (PLOS Pathogens, 2025).
